Measured values reported in patent US12281149B2, “Modulators of G-protein coupled receptors” (priority 2021, dated 2025).
*1 amine or outer side, *2 acyl side, *3 side chain or, on linkers, in order; H or OH if unused. Where a SMILES comes first, the peptide text is derived from it. Side-chain parts run from the residue outwards. [ ]: non-standard residue; d: D form. The star is where a group is joined. C20 diacid = O=C(O)CCCCCCCCCCCCCCCCCCC(=O)*; γGlu = O=C(O)[C@H](CCC(=O)[*:2])N[*:1]; X36 = O=C(C1(c2ccc(Cl)cc2)CCCCC1)*; X25 = CC(C)(C(=O)*)n1cc(F)cn1; AEEA = NCCOCCOCC(=O)O; Aib = CC(C)(N)C(=O)O; βAla = NCCC(=O)O

Key:
Format in all cases: cell-based
[1] = biological target: T1, GLP-1 receptor (Homo sapiens, UniProt P43220); experiment: HitHunter cAMP assay, GLP-1 receptor; conditions: for EC50: CHO cells stably expressing human GLP-1 receptor, cAMP accumulation, 30 min, read-out: EC50 GLP-1R; for Emax: CHO cells, cAMP, normalized to maximum signal from GLP-1 (high) and DMSO (low), read-out: Emax GLP-1R
T1 sequence (P43220 24-463): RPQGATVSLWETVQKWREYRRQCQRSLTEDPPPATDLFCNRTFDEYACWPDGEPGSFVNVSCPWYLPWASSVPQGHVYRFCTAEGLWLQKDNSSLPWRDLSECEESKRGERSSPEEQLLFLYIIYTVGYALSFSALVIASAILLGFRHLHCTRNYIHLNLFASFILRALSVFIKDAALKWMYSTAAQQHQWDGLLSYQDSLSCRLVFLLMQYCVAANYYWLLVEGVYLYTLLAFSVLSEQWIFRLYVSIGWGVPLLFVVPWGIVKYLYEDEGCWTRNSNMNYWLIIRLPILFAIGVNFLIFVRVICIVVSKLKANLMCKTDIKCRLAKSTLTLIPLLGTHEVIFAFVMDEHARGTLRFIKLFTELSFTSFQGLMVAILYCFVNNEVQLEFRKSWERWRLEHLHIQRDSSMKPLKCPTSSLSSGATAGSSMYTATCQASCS

[2] = biological target: T2, GIP receptor (Homo sapiens, UniProt P48546); experiment: HitHunter cAMP assay, GIP receptor; conditions: for EC50: CHO cells stably expressing GIP receptor, cAMP accumulation, 30 min, read-out: EC50 GIP-1R; for Emax: CHO cells, cAMP, normalized to maximum signal from GIP (high) and DMSO (low), read-out: Emax GIP-1R
T2 sequence (P48546 22-466): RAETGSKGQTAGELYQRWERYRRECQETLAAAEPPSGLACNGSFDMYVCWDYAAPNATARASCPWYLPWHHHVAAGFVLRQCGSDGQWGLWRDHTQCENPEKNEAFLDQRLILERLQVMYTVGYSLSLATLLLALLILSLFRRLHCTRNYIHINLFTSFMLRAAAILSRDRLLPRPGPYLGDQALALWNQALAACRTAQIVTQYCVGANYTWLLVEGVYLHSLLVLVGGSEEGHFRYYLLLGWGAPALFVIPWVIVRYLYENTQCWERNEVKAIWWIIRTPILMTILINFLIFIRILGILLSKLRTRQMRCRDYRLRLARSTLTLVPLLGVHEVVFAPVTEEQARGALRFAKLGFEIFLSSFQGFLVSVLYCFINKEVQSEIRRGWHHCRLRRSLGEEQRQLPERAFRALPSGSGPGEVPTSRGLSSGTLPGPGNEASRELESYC

[3] = biological target: T2, GIP receptor; experiment: PathHunter β-arrestin assay, GIP receptor; parameters: host or cells: PathHunter CHO-K1 GIPR β-Arrestin Cell Line; conditions: β-arrestin-2 recruitment, PathHunter CHO-K1 GIPR β-Arrestin Cell Line, 90 min at 37° C.; normalized to GIP; read-out: GIPR β Arrestin EC50
Method: (§1) β-arrestin-2 recruitment for GLP-1 receptor or GIP receptor was measured using the DiscoverX PathHunter Detection Kit and PathHunter® CHO-K1 GLPIR β-Arrestin Cell Line or PathHunter® CHO-K1 GIPR β-Arrestin Cell Line, respectively). Briefly, cells were grown in Ham's F12 Nutrient Mix with 10% FBS and lifted with Cell dissociation buffer, Enzyme free, PBS based (ThermoFisher). Harvested cells were pelleted and resuspended in Assay Complete Cell Plating Reagent 2 and 5000 cells per well were plated in tissue culture treated 384-well small volume white assay plates. Plates were then incubated at 37° C. and 5% CO2 overnight. The media was then replaced with fresh Assay Complete Cell Plating Reagent 2. Cells were then treated with 10 nl compound in DMSO using an ECHO 550 acoustic dispenser (Labcyte) in a 20-point dose response format in duplicate for 90 min at 37° C. The assay was then completed according to the manufacturer's instructions. Luminescence was measured using a Perkin Elmer Envision plate reader. Raw data was normalized to the maximum signal from GLP-1 or GIP (high) and DMSO (low). Dose response curves were analyzed using GraphPad Prism 9.0.

[4] = biological target: T1, GLP-1 receptor; experiment: PathHunter β-arrestin assay, GLP-1 receptor; parameters: host or cells: PathHunter CHO-K1 GLP1R β-Arrestin Cell Line; conditions: β-arrestin-2 recruitment, PathHunter CHO-K1 GLP1R β-Arrestin Cell Line, 90 min at 37° C.; normalized to GLP-1; read-out: GLP-1R β Arrestin EC50
Method: as §1

| Structure (SMILES) | EC50 [1] | Emax [1] | EC50 [2] | Emax [2] | EC50 [3] | EC50 [4] |
| --- | --- | --- | --- | --- | --- | --- |
| CC[C@H](C)[C@H](NC(=O)[C@H](CC(C)C)NC(=O)[C@H](Cc1c[nH]c2ccccc12)NC(=O)[C@H](CCC(N)=O)NC(=O)[C@@H](NC(=O)[C@H](Cc1ccccc1)NC(=O)[C@H](C)NC(=O)[C@H](CCCCNC(=O)COCCOCCNC(=O)COCCOCCNC(=O)CC[C@H](NC(=O)CCCCCCCCCCCCCCCCCCC(=O)O)C(=O)O)NC(=O)[C@H](CCC(N)=O)NC(=O)[C@H](C)NC(=O)[C@@H](NC(=O)[C@H](CCCCN)NC(=O)[C@H](CC(=O)O)NC(=O)[C@H](CC(C)C)NC(=O)C(C)(C)NC(=O)[C@@H](NC(=O)[C@H](CO)NC(=O)[C@H](Cc1ccc(O)cc1)NC(=O)[C@H](CC(=O)O)NC(=O)[C@H](CO)NC(=O)[C@@H](NC(=O)[C@H](Cc1ccccc1)NC(=O)[C@@H](NC(=O)CNC(=O)[C@H](CCC(=O)O)NC(=O)CCNC(=O)C1(c2ccc(Cl)cc2)CCCCC1)[C@@H](C)O)[C@@H](C)O)[C@@H](C)CC)[C@@H](C)CC)C(C)C)C(=O)N[C@@H](C)C(=O)NCC(=O)NCC(=O)N1CCC[C@H]1C(=O)N[C@@H](CO)C(=O)N[C@@H](CO)C(=O)NCC(=O)N[C@@H](C)C(=O)N1CCC[C@H]1C(=O)N1CCC[C@H]1C(=O)N1CCC[C@H]1C(=O)N[C@@H](CO)C(N)=O [Compound 174] ({X36-βAla}-EGTFTSDYSI[Aib]LDKIAQK([AEEA-AEEA-γGlu-C20 diacid])AFVQWLIAGGPSSGAPPPS-NH2) | 10 to 100 nM | 93% | 10 to 100 nM | 104% | > 1000 nM | > 1000 nM |
| CC[C@H](C)[C@H](NC(=O)[C@H](CC(C)C)NC(=O)[C@H](Cc1c[nH]c2ccccc12)NC(=O)[C@H](CCC(N)=O)NC(=O)[C@@H](NC(=O)[C@H](Cc1ccccc1)NC(=O)[C@H](C)NC(=O)[C@H](CCCCNC(=O)COCCOCCNC(=O)COCCOCCNC(=O)CC[C@H](NC(=O)CCCCCCCCCCCCCCCCCCC(=O)O)C(=O)O)NC(=O)[C@H](CCC(N)=O)NC(=O)[C@H](C)NC(=O)[C@@H](NC(=O)[C@H](CCCCN)NC(=O)[C@H](CC(=O)O)NC(=O)[C@H](CC(C)C)NC(=O)C(C)(C)NC(=O)[C@@H](NC(=O)[C@H](CO)NC(=O)[C@H](Cc1ccc(O)cc1)NC(=O)[C@H](CC(=O)O)NC(=O)[C@H](CO)NC(=O)[C@@H](NC(=O)[C@H](Cc1ccccc1)NC(=O)[C@@H](NC(=O)CNC(=O)[C@H](CCC(=O)O)NC(=O)CCNC(=O)C(C)(C)n1cc(F)cn1)[C@@H](C)O)[C@@H](C)O)[C@@H](C)CC)[C@@H](C)CC)C(C)C)C(=O)N[C@@H](C)C(=O)NCC(=O)NCC(=O)N1CCC[C@H]1C(=O)N[C@@H](CO)C(=O)N[C@@H](CO)C(=O)NCC(=O)N[C@@H](C)C(=O)N1CCC[C@H]1C(=O)N1CCC[C@H]1C(=O)N1CCC[C@H]1C(=O)N[C@@H](CO)C(N)=O [Compound 132] ({X25-βAla}-EGTFTSDYSI[Aib]LDKIAQK([AEEA-AEEA-γGlu-C20 diacid])AFVQWLIAGGPSSGAPPPS-NH2) | < 0.1 nM | 98% | 10 to 100 nM | 104% | > 1000 nM | < 1000 nM |
